Assays:
E2 (estradiol) = assay: Example 3 study in hypogonadal men: serum estradiol (ITT); format: in vivo, human; details: for Estradiol, Max / Estradiol, Mean ± SD / Estradiol, Median / Estradiol, Min: Baseline (Visit 2);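 for Estradiol, Max: estradiol concentrations in pg/mL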;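 for Estradiol, Mean ± SD: estradiol concentrations in pg/mL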;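 for Estradiol, Median: estradiol concentrations in pg/mL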;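 for Estradiol, Min: estradiol concentrations in pg/mL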
Protocol: A randomized, double-blind, placebo controlled, parallel-group study of once-daily doses of fispemifene (100, 200, and 300 mg/day) given for 4 weeks was conducted in a population of hypogonadal men. Subjects were required to meet all of the following inclusion criteria at screening and prior to randomization to be eligible for the study:
There were 77 subjects total. The number of subjects randomized to the 100 mg fispemifene, 200 mg fispemifene, 300 mg fispemifene, and placebo arms were 21, 21, 19, and 16, respectively.
Subjects were randomly assigned to one of four treatment groups in a 1:1:1:1 ratio: • Treatment A (100 mg): fispemifene 100 mg+placebo+placebo; • Treatment B (200 mg): fispemifene 100 mg+fispemifene 100 mg+placebo; • Treatment C (300 mg): fispemifene 100 mg+fispemifene 100 mg+fispemifene 100 mg; and • Treatment D (Placebo): placebo+placebo+placebo.
Subjects took one dose (three capsules) of study medication once a day at home for 4 weeks. Capsules were to be taken in the morning immediately after breakfast, with the exception of the morning of the Week 4 visit. Capsules were not to be taken on the morning of the Week 4 visit because trough plasma levels of fispemifene were determined by a blood sample taken at this visit. Each subject was randomly assigned to treatment with one of the 3 different dose regimens of fispemifene or placebo vehicle. Each subject received a 4 week supply of study drug.
Blood samples were taken from the subjects within 1 week prior to dosing with study drug to establish baseline values; after 2 and 4 weeks of randomization; and 2 weeks after the last dose of study drug. Serum was prepared from those samples and used to determine the mean % change from baseline in total testosterone, free testosterone, SHBG (sex hormone-binding globulin), DHT (dihydrotestosterone), E2 (estradiol), LH (luteinizing hormone), FSH (follicle stimulating hormone), and inhibin B.
3. Percent change from baseline in SHBG, DHT, E2, LH, FSH, inhibin B, and testosterone/E2 ratio at Weeks 2, 4, and 6.

serum testosterone = assay: Phase I repeated dose study 101-50202: serum total testosterone; format: in vivo, human; details: for increase of the mean serum total testosterone compared to baseline: 28 days, healthy men
Text: Fispemifene has been studied in two phase I studies in humans—in a single dose and a repeated dose study. Effect of fispemifene on hormone levels was one main focus of the repeated dose study. The phase I repeated dose study (number 101-50202) was a randomized, double-blind, placebo-controlled 28-day dose-escalation study performed in 31 healthy, elderly men, aged 50-68 years. The main objective of the study was to investigate the tolerability, safety and pharmacokinetics of fispemifene after repeated oral doses, but the study focused also on the effects of fispemifene on serum free and total testosterone, estradiol, and other relevant hormones. The fispemifene doses 10, 30, 100 and 300 mg per day and placebo were administered once every morning as capsules containing 10 mg or 100 mg of fispemifene, or placebo.
The variables for safety and tolerability were adverse events, vital signs, 12-lead ECG, clinical laboratory evaluations, physical examination, ultrasound examinations (mammary glands) and inhibin B. For pharmacokinetics, the concentrations of fispemifene and its metabolite(s) were to be evaluated. For pharmacodynamics, serum concentrations of FSH, LH, estradiol, testosterone, SHBG, prolactin, aldosterone, cortisol and TSH before and during treatment were measured and compared with the concentrations in the placebo-group.

[1] = 100 mg/day, to Week 6 (2 weeks after discontinuation)
[2] = 200 mg/day, to Week 6 (2 weeks after discontinuation)
[3] = 300 mg/day, to Week 6 (2 weeks after discontinuation)

Compound: OCCOCCOc1ccc(/C(=C(/CCCl)c2ccccc2)c2ccccc2)cc1 [Fispemifene, (Z)-2-{2-[4-(4-Chloro-1,2-diphenylbut-1-enyl)phenoxy]ethoxy}ethanol]
- Estradiol, Max (E2 (estradiol); 100 mg/day): 34.0 pg/mL
- Estradiol, Mean ± SD (E2 (estradiol); 100 mg/day): 18.2 ± 6.54 pg/mL
- Estradiol, Median (E2 (estradiol); 100 mg/day): 18.0 pg/mL
- Estradiol, Min (E2 (estradiol); 100 mg/day): 10.0 pg/mL
- Estradiol, % Change from Baseline, Max (E2 (estradiol); 100 mg/day, to Week 2): 131%
- Estradiol, % Change from Baseline, Median (E2 (estradiol); 100 mg/day, to Week 2): 32%
- Estradiol, % Change from Baseline, Max (E2 (estradiol); 100 mg/day, to Week 4): 110%
- Estradiol, % Change from Baseline, Median (E2 (estradiol); 100 mg/day, to Week 4): 31%
- Estradiol, % Change from Baseline, Max (E2 (estradiol); [1]): 80%
- Estradiol, % Change from Baseline, Median (E2 (estradiol); [1]): 13%
- Estradiol, Max (E2 (estradiol); 200 mg/day): 33.0 pg/mL
- Estradiol, Mean ± SD (E2 (estradiol); 200 mg/day): 19.2 ± 6.23 pg/mL
- Estradiol, Median (E2 (estradiol); 200 mg/day): 17.0 pg/mL
- Estradiol, Min (E2 (estradiol); 200 mg/day): 11.0 pg/mL
- Estradiol, % Change from Baseline, Max (E2 (estradiol); 200 mg/day, to Week 2): 171%
- Estradiol, % Change from Baseline, Median (E2 (estradiol); 200 mg/day, to Week 2): 23%
- Estradiol, % Change from Baseline, Max (E2 (estradiol); 200 mg/day, to Week 4): 150%
- Estradiol, % Change from Baseline, Median (E2 (estradiol); 200 mg/day, to Week 4): 43%
- Estradiol, % Change from Baseline, Max (E2 (estradiol); [2]): 176%
- Estradiol, % Change from Baseline, Median (E2 (estradiol); [2]): 23%
- Estradiol, Max (E2 (estradiol); 300 mg/day): 42.0 pg/mL
- Estradiol, Mean ± SD (E2 (estradiol); 300 mg/day): 20.8 ± 7.15 pg/mL
- Estradiol, Median (E2 (estradiol); 300 mg/day): 22.0 pg/mL
- Estradiol, Min (E2 (estradiol); 300 mg/day): 10.0 pg/mL
- Estradiol, % Change from Baseline, Max (E2 (estradiol); 300 mg/day, to Week 2): 108%
- Estradiol, % Change from Baseline, Median (E2 (estradiol); 300 mg/day, to Week 2): 33%
- Estradiol, % Change from Baseline, Max (E2 (estradiol); 300 mg/day, to Week 4): 100%
- Estradiol, % Change from Baseline, Median (E2 (estradiol); 300 mg/day, to Week 4): 29%
- Estradiol, % Change from Baseline, Max (E2 (estradiol); [3]): 77%
- Estradiol, % Change from Baseline, Median (E2 (estradiol); [3]): 0%
- effect on serum estradiol levels (E2 (estradiol); hypogonadal men, 100-300 mg/day for 4 weeks): increased
- Serum total testosterone, Mean (serum testosterone; 10 mg/day, Baseline): 19.33 nmol/L
- Serum total testosterone, Mean (serum testosterone; 10 mg/day, Day 8): 19.83 nmol/L
- Serum total testosterone, Mean (serum testosterone; 10 mg/day, Day 15): 20.50 nmol/L
- Serum total testosterone, Mean (serum testosterone; 10 mg/day, Day 22): 22.00 nmol/L
- Serum total testosterone, Mean (serum testosterone; 10 mg/day, Day 28): 17.40 nmol/L
- Serum total testosterone, Mean (serum testosterone; 30 mg/day, Baseline): 15.00 nmol/L
- Serum total testosterone, Mean (serum testosterone; 30 mg/day, Day 15): 15.00 nmol/L
- Serum total testosterone, Mean (serum testosterone; 30 mg/day, Day 22): 15.80 nmol/L
- Serum total testosterone, Mean (serum testosterone; 30 mg/day, Day 28): 14.80 nmol/L
- testosterone compared with placebo (serum testosterone; 100 mg and 300 mg): increased statistically significantly
- subjects in whom increase in testosterone serum concentration was seen (serum testosterone; 100 mg or 300 mg, 28-day treatment period): all the subjects
- increase of the mean serum total testosterone compared to baseline (serum testosterone; 100 mg/day): 32%
- increase of the mean serum total testosterone compared to baseline (serum testosterone; 100 mg/day, listed as fispemifene): about 32%
- Serum total testosterone, Mean (serum testosterone; 100 mg/day, Baseline): 14.27 nmol/L
- Serum total testosterone, Mean (serum testosterone; 100 mg/day, Day 8): 18.67 nmol/L
- Serum total testosterone, Mean (serum testosterone; 100 mg/day, Day 15): 19.00 nmol/L
- Serum total testosterone, Mean (serum testosterone; 100 mg/day, Day 22): 17.83 nmol/L
- Serum total testosterone, Mean (serum testosterone; 100 mg/day, Day 28): 18.83 nmol/L
- men with serum testosterone level above the upper limit of normal range (33 nmol/L) during treatment (serum testosterone; 300 mg/day (highest dose)): Two out of six
- increase of the mean serum total testosterone compared to baseline (serum testosterone; 300 mg/day): 75%
- increase of the mean serum total testosterone compared to baseline (serum testosterone; 300 mg/day, listed as fispemifene): about 75%
- Serum total testosterone, Mean (serum testosterone; 300 mg/day, Baseline): 15.67 nmol/L
- Serum total testosterone, Mean (serum testosterone; 300 mg/day, Day 8): 23.17 nmol/L
- Serum total testosterone, Mean (serum testosterone; 300 mg/day, Day 15): 27.00 nmol/L
- Serum total testosterone, Mean (serum testosterone; 300 mg/day, Day 22): 27.83 nmol/L
- Serum total testosterone, Mean (serum testosterone; 300 mg/day, Day 28): 27.50 nmol/L
- effect on serum concentration of testosterone (serum testosterone; during the 28 days of treatment): increased
- effect on serum testosterone concentration (serum testosterone; healthy older men, within 28 days from the start of treatment): clinically and statistically significant and dose dependent increase
